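1) Cells in 96-well plates. 2) Compound, 48 h, 5 concentrations. 3) Linear interpolation between surrounding doses. 4) Unreached endpoint = highest concentration. GI50 is the concentration that inhibits growth by half.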 Calls of active or inactive are those of the source. Cut-off read from the data, not from the text of the source: active = GI50 up to about 1.1 µM and inactive = higher.
Experiments:
Test in all cases: DTP human tumour cell line panel, 48 h
[1] = tested on: 786-0
[2] = tested on: A498
[3] = tested on: A549
[4] = tested on: ACHN
[5] = tested on: CAKI-1
[6] = tested on: CCRF-CEM
[7] = tested on: COLO 205
[8] = tested on: DLD-1
[9] = tested on: DMS-114
[10] = tested on: DMS-273
[11] = tested on: HCC 2998
[12] = tested on: HCT-116
[13] = tested on: HCT-15
[14] = tested on: HL-60
[15] = tested on: HOP-62
[16] = tested on: HOP-92
[17] = tested on: HT-29
[18] = tested on: IGROV-1
[19] = tested on: K562
[20] = tested on: KM-20L2
[21] = tested on: KM12
[22] = tested on: LOX IMVI
[23] = tested on: LXFL 529
[24] = tested on: M14
[25] = tested on: M19-MEL
[26] = tested on: MOLT-4
[27] = tested on: Malme-3M
[28] = tested on: NCI-H226
[29] = tested on: NCI-H23
[30] = tested on: NCI-H460
[31] = tested on: NCI-H522
[32] = tested on: OVCAR-3
[33] = tested on: OVCAR-4
[34] = tested on: OVCAR-5
[35] = tested on: OVCAR-8
[36] = tested on: RPMI-8226
[37] = tested on: RXF 393
[38] = tested on: RXF 631
[39] = tested on: SF-268
[40] = tested on: SF-295
[41] = tested on: SF-539
[42] = tested on: SK-MEL-28
[43] = tested on: SK-MEL-2
[44] = tested on: SK-MEL-5
[45] = tested on: SK-OV-3
[46] = tested on: SN12C
[47] = tested on: SNB-19
[48] = tested on: SNB-75
[49] = tested on: SNB-78
[50] = tested on: SR
[51] = tested on: SW-620
[52] = tested on: TK-10
[53] = tested on: U-251
[54] = tested on: UACC-257
[55] = tested on: UACC-62
[56] = tested on: UO-31
[57] = tested on: XF498

N#CCCn1c(S)nnc1CCC(=O)Nc1ccc(Cl)cc1Cl
GI50 [1]: > 100 µM (inactive) | GI50 [2]: > 100 µM (inactive) | GI50 [3]: 81.3 µM (inactive) | GI50 [4]: > 100 µM (inactive) | GI50 [5]: > 100 µM (inactive) | GI50 [6]: 52.6 µM (inactive) | GI50 [7]: > 100 µM (inactive) | GI50 [8]: > 100 µM (inactive) | GI50 [9]: > 100 µM (inactive) | GI50 [10]: > 100 µM (inactive) | GI50 [11]: > 100 µM (inactive) | GI50 [12]: > 100 µM (inactive) | GI50 [13]: > 100 µM | GI50 [14]: 94.2 µM (inactive) | GI50 [15]: > 100 µM (inactive) | GI50 [16]: > 100 µM (inactive) | GI50 [17]: > 100 µM (inactive) | GI50 [18]: > 100 µM (inactive) | GI50 [19]: 41.4 µM (inactive) | GI50 [20]: > 100 µM (inactive) | GI50 [21]: > 100 µM (inactive) | GI50 [22]: 71.6 µM (inactive) | GI50 [23]: > 100 µM (inactive) | GI50 [24]: > 100 µM (inactive) | GI50 [25]: > 100 µM (inactive) | GI50 [26]: > 100 µM (inactive) | GI50 [27]: > 100 µM (inactive) | GI50 [28]: > 100 µM (inactive) | GI50 [29]: > 100 µM (inactive) | GI50 [30]: > 100 µM (inactive) | GI50 [31]: > 100 µM (inactive) | GI50 [32]: > 100 µM (inactive) | GI50 [33]: > 100 µM (inactive) | GI50 [34]: > 100 µM (inactive) | GI50 [35]: > 100 µM (inactive) | GI50 [36]: > 100 µM (inactive) | GI50 [37]: > 100 µM (inactive) | GI50 [38]: > 100 µM (inactive) | GI50 [39]: > 100 µM (inactive) | GI50 [40]: > 100 µM (inactive) | GI50 [41]: > 100 µM (inactive) | GI50 [42]: > 100 µM (inactive) | GI50 [43]: > 100 µM (inactive) | GI50 [44]: > 100 µM (inactive) | GI50 [45]: > 100 µM (inactive) | GI50 [46]: > 100 µM (inactive) | GI50 [47]: > 100 µM (inactive) | GI50 [48]: > 100 µM (inactive) | GI50 [49]: > 100 µM (inactive) | GI50 [50]: 21.7 µM (inactive) | GI50 [51]: > 100 µM (inactive) | GI50 [52]: > 100 µM (inactive) | GI50 [53]: > 100 µM (inactive) | GI50 [54]: > 100 µM (inactive) | GI50 [55]: > 100 µM (inactive) | GI50 [56]: > 100 µM (inactive) | GI50 [57]: > 100 µM (inactive)

Source: ChEMBL document CHEMBL1201862, “PubChem BioAssay data set” (2004)
